From US9309225B2, “N-((1-benzyl-1H-1,2,3-triazol-4-yl)methyl)arylamide compounds as potential anticancer agents and a process for the preparation thereof” (COUNCIL OF SCIENTIFIC & INDUSTRIAL RESEARCH, priority 2013, dated 2016)
Read-outs that look alike come from different tables or passages of the source. Blank lines part the entries; values can stand above or below the molecule they belong to.

Experiments:
[1] = system: A549; experiment: IC50 of compounds and E7010 against A549 cell line; format: cell-based
Description: (§1) In the present investigation, an attempt has been made, in view of the biological importance of both 2-anilino nicotinyl structure and 1,2,3-triazoles group. […] Introduction of triazole group on 2-anilino nicotinyl moiety resulted that there is enhancement of biological activity of representative compounds (1a, 1b, 1c, 1d, 1f, 1g, 1i, 1k, 6b and 6g) compare with E7010. Biological data of representative compounds has been provided in Table 1. • (Novel sulfonamides as potential, systemically active antitumor agents. Yoshino, H.; Ueda, N.; Niijima, J.; Sugumi, H.; Kotake, Y.; Koyanagi, N.; Yoshimatsu, K.; Asada, M.; Watanabe, T.; Nagasu, T. J. Med. Chem. 1992, 35, 2496-2497)

[2] = system: MCF-7; experiment: IC50 of compounds and E7010 against MCF-7 cell line; format: cell-based
Description: as §1

[3] = system: A549; settings: A549 cell line; E7010 comparison value (Chem MedChem 2012, 7, 680-693); cited from earlier work
[4] = system: MCF-7; settings: MCF-7 cell line; E7010 comparison value (Chem MedChem 2012, 7, 680-693); cited from earlier work
[5] = Homo sapiens, A549, A549 cell line
[6] = Homo sapiens, MCF7, MCF-7 cell line

Compound: O=C(NCc1cn(Cc2cccc(Oc3ccccc3)c2)nn1)c1cccnc1Nc1ccc(Cl)cc1 [Compound 1c, 2-(4-Chlorophenylamino)-N-((1-(3-phenoxybenzyl)-1H-1,2,3-triazol-4-yl)methyl)nicotinamide]
melting point: 127 to 129 °C

Compound: O=C(NCc1cn(Cc2cccc(Oc3ccccc3)c2)nn1)c1cccnc1Nc1ccc(Br)cc1 [Compound 1d, 2-(4-Bromophenylamino)-N-((1-(3-phenoxybenzyl)-1H-1,2,3-triazol-4-yl)methyl)nicotinamide]
IC50 ([1]; A549 cell line): 1900 nM
IC50 [1, 5]: 1250 to 3980 nM
IC50 [2, 6]: 740 to 2510 nM
IC50 ([2]; MCF-7 cell line): 970 nM
melting point: 160 to 162 °C

Compound: O=C(NCc1cn(Cc2cccc(Oc3ccccc3)c2)nn1)c1cccnc1Nc1cccc(F)c1 [Compound 1f, 2-(3-Fluorophenylamino)-N-((1-(3-phenoxybenzyl)-1H-1,2,3-triazol-4-yl)methyl) nicotinamide]
IC50 ([1]; A549 cell line): 1900 nM
IC50 [1, 5]: 1250 to 3980 nM
melting point: 130 to 132 °C

Compound: COc1ccc(S(=O)(=O)Nc2cccnc2Nc2ccc(O)cc2)cc1 [Compound E7010]
IC50 [3]: 4450 nM
IC50 [4]: 9060 nM

Results, then the molecule that gave them:

IC50 ([1]; A549 cell line): 1250 nM
IC50 [1, 5]: 1250 to 3980 nM
IC50 [2, 6]: 740 to 2510 nM
IC50 ([2]; MCF-7 cell line): 1000 nM
melting point: 140 to 142 °C
Compound: COc1cc(Cn2cc(CNC(=O)c3cccnc3Nc3ccc(F)cc3)nn2)cc(OC)c1 [Compound 6b, N-((1-(3,5-Dimethoxybenzyl)-1H-1,2,3-triazol-4-yl)methyl)-2-((4-fluorophenyl)amino) nicotinamide]

IC50 ([1]; A549 cell line): 1310 nM
IC50 [1, 5]: 1250 to 3980 nM
IC50 [2, 6]: 740 to 2510 nM
IC50 ([2]; MCF-7 cell line): 1170 nM
melting point: 147 to 149 °C
Compound: COc1cc(Cn2cc(CNC(=O)c3cccnc3Nc3ccc(OC)cc3OC)nn2)cc(OC)c1 [Compound 6g, N-((1-(3,5-Dimethoxybenzyl)-1H-1,2,3-triazol-4-yl)methyl)-2-((2,4-dimethoxyphenyl)amino)nicotinamide]
